{"source": "the Deep4Chem optical property database", "test": "photoluminescence quantum yield (fraction); solvent given as SMILES"}
{"smiles": "CCCCCCCCOc1ccc(-c2c3c4n(c(-c5ccc(OCCCCCCCC)cc5)c3c3n2[B-](F)(F)[n+]2c(ccc5ccccc52)N=3)[B-](F)(F)[n+]2c(ccc3ccccc32)N=4)cc1", "values": [{"measurement": "photoluminescence quantum yield", "setting": "in ClC(Cl)Cl", "value": 0.83}]}
{"smiles": "CC(C)(C)c1ccc2c(c1)Cc1cc(C(C)(C)C)ccc1-2", "values": [{"measurement": "photoluminescence quantum yield", "setting": "in C1CCCCC1", "value": 0.7}]}
{"smiles": "CC(C)c1cc(C(C)C)c(B2c3ccccc3Oc3cc(-n4c5ccccc5c5ccc6c(c7ccccc7n6-c6ccccc6)c54)ccc32)c(C(C)C)c1", "values": [{"measurement": "photoluminescence quantum yield", "setting": "in CC(C)c1cc(C(C)C)c(-c2ccc(-n3c4ccccc4n4c5ccccc5nc34)nc2)c(C(C)C)c1", "value": 0.506}, {"measurement": "photoluminescence quantum yield", "setting": "in O=P(c1ccccc1)(c1ccccc1)c1ccccc1Oc1ccccc1P(=O)(c1ccccc1)c1ccccc1", "value": 0.631}]}
{"smiles": "CCC1(CC)c2ccccc2-c2ccc(C#Cc3ccc4ccc5cccc6ccc3c4c56)cc21", "values": [{"measurement": "photoluminescence quantum yield", "setting": "in Cc1ccccc1", "value": 0.99}]}
{"smiles": "CCCCCCc1ccc(-n2c3[n+](c4c5ccccc5c5ccccc5c42)[B-](C)(C)c2ccccc2-3)cc1", "values": [{"measurement": "photoluminescence quantum yield", "setting": "in C1CCOC1", "value": 0.45}, {"measurement": "photoluminescence quantum yield", "setting": "in CC#N", "value": 0.28}, {"measurement": "photoluminescence quantum yield", "setting": "in Cc1ccccc1", "value": 0.46}, {"measurement": "photoluminescence quantum yield", "setting": "in ClCCl", "value": 0.38}]}
{"smiles": "COc1ccc(-c2cc3c(s2)c(C(C)=O)cc(=O)n3C)cc1", "values": [{"measurement": "photoluminescence quantum yield", "setting": "in CC#N", "value": 0.84}, {"measurement": "photoluminescence quantum yield", "setting": "in ClCCl", "value": 0.98}]}
{"smiles": "COC(=O)c1[nH]c(-c2ccccc2)c2nnc3ccc(OC)cc3c12", "values": [{"measurement": "photoluminescence quantum yield", "setting": "in ClCCl", "value": 0.0207}]}
{"smiles": "C/C=C/c1ccc(OC)c(OC)c1", "values": [{"measurement": "photoluminescence quantum yield", "setting": "in CC#N", "value": 0.28}, {"measurement": "photoluminescence quantum yield", "setting": "in CCCCCC", "value": 0.35}]}
{"smiles": "CCCCCCCCn1c2ccccc2c(=O)c2ccccc21", "values": [{"measurement": "photoluminescence quantum yield", "setting": "in CS(C)=O", "value": 0.66}]}
{"smiles": "FC(F)(F)C(F)(F)C(F)(F)C(F)(F)C(F)(F)C(F)(F)C(F)(F)C(F)(F)CCOc1nnc(Cl)nn1", "values": [{"measurement": "photoluminescence quantum yield", "setting": "in ClCCl", "value": 0.44}, {"measurement": "photoluminescence quantum yield", "setting": "in OCC(F)(F)F", "value": 0.28}]}
